Results taken from patent US8802597B2, “Herbicidal pyrimidines” (E I du Pont de Nemours and Company, priority 2003, dated 2014).

Assays:
Assay in all cases: Test G pre/postemergence
Type in all cases: in vivo
[1] = tested on: dallisgrass (Paspalum dilatatum)
Source text: (§1) Seeds or nutlets of plant species selected from bermudagrass (Cynodon dactylon), Surinam grass (Brachiaria decumbens), large crabgrass (Digitaria sanguinalis), green foxtail (Setaria viridis), goosegrass (Eleusine indica), johnsongrass (Sorghum halepense), kochia (Kochia scoparia), pitted morningglory (Ipomoea lacunosa), purple nutsedge (Cyperus rotundus), common ragweed (Ambrosia elatior), black mustard (Brassica nigra), guineagrass (Panicum maximum), dallisgrass (Paspalum dilatatum), barnyardgrass (Echinochloa crus-galli), southern sandbur (Cenchrus echinatus), common sowthistle (Sonchus oleraceous), prickly sida (Sida spinosa), Italian ryegrass (Lolium multiflorum), common purslane (Portulaca oleracea), broadleaf signalgrass (Brachiaria platyphylla), common groundsel (Senecio vulgaris), common chickweed (Stellaria media), tropical spiderwort (Commelina benghalensis), annual bluegrass (Poa annua), downy bromegrass (Bromus tectorum), itchgrass (Rottboellia cochinchinensis), quackgrass (Elytrigia repens), Canada horseweed (Conyza canadensis), field bindweed (Convolvulus arvensis), spanishneedles (Bidens bipinnata), common mallow (Malva sylvestris), and Russian thistle (Salsola kali) were planted and treated preemergence with test chemicals formulated in a non-phytotoxic solvent mixture which included a surfactant.
(§2) At the same time, plants selected from these weed species were treated with postemergence applications of some of the test chemicals formulated in the same manner. Plants ranged in height from 2 to 18 cm (1- to 4-leaf stage) for postemergence treatments. Treated plants and controls were maintained in a greenhouse for 12 to 21 days, after which time all species were compared to controls and visually evaluated.
(§3) Plant response ratings, summarized in Table G, are based on a scale of 0 to 100 where 0 is no effect and 100 is complete control. A dash (-) response means no test result.

[2] = tested on: annual bluegrass (Poa annua)
Source text: as §1, §2, §3

[3] = tested on: black mustard (Brassica nigra)
Source text: as §1, §2, §3

[4] = tested on: Surinam grass (Brachiaria decumbens)
Source text: as §1, §2, §3

[5] = tested on: goosegrass (Eleusine indica)
Source text: as §1, §2, §3

[6] = tested on: common mallow (Malva sylvestris)
Source text: as §1, §2, §3

[7] = tested on: pitted morningglory (Ipomoea lacunosa)
Source text: as §1, §2, §3

[8] = tested on: green foxtail (Setaria viridis)
Source text: as §1, §2, §3

[9] = tested on: bermudagrass (Cynodon dactylon)
Source text: as §1, §2, §3

[10] = tested on: Italian ryegrass (Lolium multiflorum)
Source text: as §1, §2, §3

[11] = tested on: field bindweed (Convolvulus arvensis)
Source text: as §1, §2, §3

[12] = tested on: tropical spiderwort (Commelina benghalensis)
Source text: as §1, §2, §3

[13] = tested on: johnsongrass (Sorghum halepense)
Source text: as §1, §2, §3

[14] = tested on: broadleaf signalgrass (Brachiaria platyphylla)
Source text: as §1, §2, §3

[15] = Postemergence, 8 g ai/ha, scale 0 to 100
[16] = Postemergence, 16 g ai/ha, scale 0 to 100
[17] = Postemergence, 31 g ai/ha, scale 0 to 100
[18] = Postemergence, 62 g ai/ha, scale 0 to 100
[19] = Preemergence, 8 g ai/ha, scale 0-100
[20] = Preemergence, 16 g ai/ha, scale 0-100
[21] = Preemergence, 31 g ai/ha, scale 0-100
[22] = Preemergence, 62 g ai/ha, scale 0-100

## CCOC(=O)c1nc(-c2ccc(Cl)cc2)nc(N)c1Cl [Compound 64, ethyl 6-amino-5-chloro-2-(4-chlorophenyl)-4-pyrimidinecarboxylate]
[1]; [15]
  Plant response rating, Dallisgrass: 0
[1]; [16]
  Plant response rating, Dallisgrass: 0
[1]; [17]
  Plant response rating, Dallisgrass: 0
[1]; [18]
  Plant response rating, Dallisgrass: 20
[1]; [19]
  Plant response rating, Dallisgrass: 0
[1]; [20]
  Plant response rating, Dallisgrass: 0
[1]; [21]
  Plant response rating, Dallisgrass: 0
[1]; [22]
  Plant response rating, Dallisgrass: 0
[2]; [15]
  Plant response rating, Bluegrass: 0
[2]; [16]
  Plant response rating, Bluegrass: 0
[2]; [17]
  Plant response rating, Bluegrass: 0
[2]; [18]
  Plant response rating, Bluegrass: 0
[2]; [19]
  Plant response rating, Bluegrass: 0
[2]; [20]
  Plant response rating, Bluegrass: 0
[2]; [21]
  Plant response rating, Bluegrass: 0
[2]; [22]
  Plant response rating, Bluegrass: 0
[3]; [15]
  Plant response rating, Black Mustard: 0
[3]; [16]
  Plant response rating, Black Mustard: 0
[3]; [17]
  Plant response rating, Black Mustard: 0
[3]; [18]
  Plant response rating, Black Mustard: 10
[3]; [19]
  Plant response rating, Black Mustard: 0
[3]; [20]
  Plant response rating, Black Mustard: 0
[3]; [21]
  Plant response rating, Black Mustard: 20
[3]; [22]
  Plant response rating, Black Mustard: 35
[4]; [15]
  Plant response rating, Surinam Grass: 0
[4]; [16]
  Plant response rating, Surinam Grass: 0
[4]; [17]
  Plant response rating, Surinam Grass: 0
[4]; [18]
  Plant response rating, Surinam Grass: 10
[4]; [19]
  Plant response rating, Surinam Grass: 0
[4]; [20]
  Plant response rating, Surinam Grass: 0
[4]; [21]
  Plant response rating, Surinam Grass: 0
[4]; [22]
  Plant response rating, Surinam Grass: 0
[5]; [15]
  Plant response rating, Goosegrass: 0
[5]; [16]
  Plant response rating, Goosegrass: 0
[5]; [17]
  Plant response rating, Goosegrass: 0
[5]; [18]
  Plant response rating, Goosegrass: 20
[5]; [19]
  Plant response rating, Goosegrass: 0
[5]; [20]
  Plant response rating, Goosegrass: 0
[5]; [21]
  Plant response rating, Goosegrass: 0
[5]; [22]
  Plant response rating, Goosegrass: 0
[6]; [15]
  Plant response rating, Mallow: 65
[6]; [16]
  Plant response rating, Mallow: 80
[6]; [17]
  Plant response rating, Mallow: 90
[6]; [18]
  Plant response rating, Mallow: 90
[6]; [19]
  Plant response rating, Mallow: 0
[6]; [21]
  Plant response rating, Mallow: 0
[6]; [22]
  Plant response rating, Mallow: 0
[7]; [15]
  Plant response rating, Morningglory: 0
[7]; [16]
  Plant response rating, Morningglory: 0
[7]; [17]
  Plant response rating, Morningglory: 20
[7]; [18]
  Plant response rating, Morningglory: 65
[7]; [19]
  Plant response rating, Morningglory: 0
[7]; [20]
  Plant response rating, Morningglory: 0
[7]; [21]
  Plant response rating, Morningglory: 0
[7]; [22]
  Plant response rating, Morningglory: 0
[8]; [15]
  Plant response rating, Foxtail, Green: 0
[8]; [16]
  Plant response rating, Foxtail, Green: 0
[8]; [17]
  Plant response rating, Foxtail, Green: 0
[8]; [18]
  Plant response rating, Foxtail, Green: 0
[8]; [19]
  Plant response rating, Foxtail, Green: 0
[8]; [20]
  Plant response rating, Foxtail, Green: 0
[8]; [21]
  Plant response rating, Foxtail, Green: 0
[8]; [22]
  Plant response rating, Foxtail, Green: 0
[9]; [15]
  Plant response rating, Bermudagrass: 0
[9]; [16]
  Plant response rating, Bermudagrass: 20
[9]; [17]
  Plant response rating, Bermudagrass: 35
[9]; [18]
  Plant response rating, Bermudagrass: 35
[9]; [19]
  Plant response rating, Bermudagrass: 0
[9]; [20]
  Plant response rating, Bermudagrass: 0
[9]; [21]
  Plant response rating, Bermudagrass: 0
[9]; [22]
  Plant response rating, Bermudagrass: 0
[10]; [15]
  Plant response rating, Ryegrass, Italian: 0
[10]; [16]
  Plant response rating, Ryegrass, Italian: 10
[10]; [17]
  Plant response rating, Ryegrass, Italian: 20
[10]; [18]
  Plant response rating, Ryegrass, Italian: 35
[10]; [19]
  Plant response rating, Ryegrass, Italian: 0
[10]; [20]
  Plant response rating, Ryegrass, Italian: 0
[10]; [21]
  Plant response rating, Ryegrass, Italian: 0
[10]; [22]
  Plant response rating, Ryegrass, Italian: 0
[11]; [15]
  Plant response rating, Bindweed, Field: 60
[11]; [16]
  Plant response rating, Bindweed, Field: 70
[11]; [17]
  Plant response rating, Bindweed, Field: 80
[11]; [18]
  Plant response rating, Bindweed, Field: 90
[11]; [19]
  Plant response rating, Bindweed, Field: 0
[11]; [20]
  Plant response rating, Bindweed, Field: 0
[11]; [21]
  Plant response rating, Bindweed, Field: 0
[11]; [22]
  Plant response rating, Bindweed, Field: 65
[12]; [15]
  Plant response rating, Spiderwort: 65
[12]; [16]
  Plant response rating, Spiderwort: 80
[12]; [17]
  Plant response rating, Spiderwort: 80
[12]; [18]
  Plant response rating, Spiderwort: 90
[12]; [19]
  Plant response rating, Spiderwort: 0
[12]; [20]
  Plant response rating, Spiderwort: 50
[12]; [21]
  Plant response rating, Spiderwort: 75
[12]; [22]
  Plant response rating, Spiderwort: 90
[13]; [15]
  Plant response rating, Johnsongrass: 0
[13]; [16]
  Plant response rating, Johnsongrass: 0
[13]; [17]
  Plant response rating, Johnsongrass: 0
[13]; [18]
  Plant response rating, Johnsongrass: 0
[13]; [19]
  Plant response rating, Johnsongrass: 0
[13]; [20]
  Plant response rating, Johnsongrass: 0
[13]; [21]
  Plant response rating, Johnsongrass: 0
[13]; [22]
  Plant response rating, Johnsongrass: 0
[14]; [15]
  Plant response rating, Signalgrass: 0
[14]; [16]
  Plant response rating, Signalgrass: 0
[14]; [17]
  Plant response rating, Signalgrass: 0
[14]; [18]
  Plant response rating, Signalgrass: 30
[14]; [19]
  Plant response rating, Signalgrass: 0
[14]; [20]
  Plant response rating, Signalgrass: 0
[14]; [21]
  Plant response rating, Signalgrass: 0
[14]; [22]
  Plant response rating, Signalgrass: 0
